# Source: patent US12091405B2, “Substituted pyrazole compounds as indoleamine 2,3-dioxygenase inhibitors” (Merck Sharp & Dohme LLC, priority 2018, dated 2024)
# Biological target: IDO1 (Homo sapiens, UniProt P14902)
# Test: IDO1 Cellular Assay in HeLa Cells Stimulated with IFNγ
# Format: cell-based
# Settings: IFNγ 100 ng/mL, 300 uM L-tryptophan, about 48 hours, fluorescence readout, read-out: IDO1 HELA Cell Assay, IC50
# Chain of IDO1 (P14902 whole entry): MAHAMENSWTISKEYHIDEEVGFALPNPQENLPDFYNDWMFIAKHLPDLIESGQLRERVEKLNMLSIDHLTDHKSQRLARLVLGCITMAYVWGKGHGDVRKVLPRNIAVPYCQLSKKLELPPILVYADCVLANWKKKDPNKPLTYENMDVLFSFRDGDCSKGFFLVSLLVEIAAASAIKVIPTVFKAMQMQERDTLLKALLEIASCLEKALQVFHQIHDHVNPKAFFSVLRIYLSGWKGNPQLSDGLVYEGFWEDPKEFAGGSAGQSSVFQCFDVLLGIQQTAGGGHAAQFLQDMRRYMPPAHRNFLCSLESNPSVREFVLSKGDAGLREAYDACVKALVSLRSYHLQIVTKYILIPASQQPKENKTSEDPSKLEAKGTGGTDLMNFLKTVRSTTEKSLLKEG
row,IC50 [nM],SMILES
1,14.4,"Cc1cc(F)ccc1C1CCN(C(=O)Cn2nc(C(=O)N3C[C@@H](C)O[C@@H](C)C3)c3c2CCC3)CC1 [Example 92, 2-{3-[(2R,6S)-2,6-dimethylmorpholine-4-carbonyl]-5,6-dihydrocyclopenta[c]pyrazol-1(4H)-yl}-1-[4-(4-fluoro-2-methylphenyl)piperidin-1-yl]ethan-1-one]"
2,234,"C[C@@H]1CN(C(=O)c2nn(CC(=O)N3CCC(c4ccc(F)cc4F)CC3)c3c2CCC3)C[C@H](C)O1 [Example 165, 1-[4-(2,4-difluorophenyl)piperidin-1-yl]-2-{3-[(2R,6S)-2,6-dimethylmorpholine-4-carbonyl]-5,6-dihydrocyclopenta[c]pyrazol-1(4H)-yl}ethan-1-one]"
3,10.3,"Cc1c(C2CCN(C(=O)Cn3nc(C(=O)N4C[C@@H](C)O[C@@H](C)C4)c4c3CCC4)CC2)ccc(F)c1F [Example 174, 1-[4-(3,4-difluoro-2-methylphenyl)piperidin-1-yl]-2-{3-[(2R,6S)-2,6-dimethylmorpholine-4-carbonyl]-5,6-dihydrocyclopenta[c]pyrazol-1(4H)-yl}ethan-1-one]"
4,11.6,"Cc1cccc(C2CCN(C(=O)Cn3nc(C(=O)N4CCC(O)CC4)c4c3CCC4)CC2(F)F)c1C (single isomer, unassigned) [Example 15, 1-(4-(2,3-dimethylphenyl)-3,3-difluoropiperidin-1-yl)-2-(3-(4-hydroxypiperidine-1-carbonyl)-5,6-dihydrocyclopenta[c]pyrazol-1(4H)-yl)ethanone]"
5,30.3,"Cc1ccc(C2CCN(C(=O)Cn3nc(C(=O)N4C[C@@H](C)O[C@@H](C)C4)c4c3CCC4)CC2)c(C)c1 [Example 105, 2-{3-[(2R,6S)-2,6-dimethylmorpholine-4-carbonyl]-5,6-dihydrocyclopenta[c]pyrazol-1(4H)-yl}-1-[4-(2,4-dimethylphenyl)piperidin-1-yl]ethan-1-one]"
6,106,"C[C@@H]1CN(C(=O)c2nn(CC(=O)N3CCC(c4ccccc4F)CC3)c3c2CCC3)C[C@H](C)O1 [Example 145, 2-{3-[(2R,6S)-2,6-dimethylmorpholine-4-carbonyl]-5,6-dihydrocyclopenta[c]pyrazol-1(4H)-yl}-1-[4-(2-fluorophenyl)piperidin-1-yl]ethan-1-one]"
7,166,"Cc1cc(F)ccc1C1CCN(C(=O)Cn2nc(C(=O)N3CC[C@@H](O)[C@@H](F)C3)c3c2CCC3)CC1 [Example 55, 1-(4-(4-fluoro-2-methylphenyl)piperidin-1-yl)-2-(3-((3S,4R)-3-fluoro-4-hydroxypiperidine-1-carbonyl)-5,6-dihydrocyclopenta[c]pyrazol-1(4H)-yl)ethanone]"
8,64.1,"C[C@@H]1CN(C(=O)c2nn(CC(=O)N3CCC(c4ccc(F)c(F)c4F)CC3)c3c2CCC3)C[C@H](C)O1 [Example 128, 2-{3-[(2R,6S)-2,6-dimethylmorpholine-4-carbonyl]-5,6-dihydrocyclopenta[c]pyrazol-1(4H)-yl}-1-[4-(2,3,4-trifluorophenyl)piperidin-1-yl]ethan-1-one]"

# Continued, compound first:
row,SMILES,IC50 [nM]
1,"Cc1cccc(C2CCN(C(=O)Cn3nc(C(=O)N4CCN(C(=O)CO)CC4)c4c3C[C@@H]3C[C@H]43)CC2)c1C [Example 28, 1-[4-(2,3-dimethylphenyl)piperidin-1-yl]-2-{(3bS,4aS)-3-[4-(hydroxyacetyl)piperazine-1-carbonyl]-3b,4,4a,5-tetrahydro-1H-cyclopropa[3,4]cyclopenta[1,2-c]pyrazol-1-yl}ethan-1-one]",41.2
2,"C[C@@H]1CN(C(=O)c2nn(CC(=O)N3CCC(c4ccccc4)CC3)c3c2CCC3)C[C@H](C)O1 [Example 70, 2-{3-[(2R,6S)-2,6-dimethylmorpholine-4-carbonyl]-5,6-dihydrocyclopenta[c]pyrazol-1(4H)-yl}-1-(4-phenylpiperidin-1-yl)ethan-1-one]",79.4
3,"Cc1ccc(C2CCN(C(=O)Cn3nc(C(=O)N4C[C@@H](C)O[C@@H](C)C4)c4c3CCC4)CC2)cc1C(F)(F)F [Example 120, 2-{3-[(2R,6S)-2,6-dimethylmorpholine-4-carbonyl]-5,6-dihydrocyclopenta[c]pyrazol-1(4H)-yl}-1-{4-[4-methyl-3-(trifluoromethyl)phenyl]piperidin-1-yl}ethan-1-one]",52.5
4,"C[C@@H]1CN(C(=O)c2nn(CC(=O)N3CCC(c4ccc(F)c(C(F)(F)F)c4)CC3)c3c2CCC3)C[C@H](C)O1 [Example 151, 2-{3-[(2R,6S)-2,6-dimethylmorpholine-4-carbonyl]-5,6-dihydrocyclopenta[c]pyrazol-1(4H)-yl}-1-{4-[4-fluoro-3-(trifluoromethyl)phenyl]piperidin-1-yl}ethan-1-one]",126
5,"C[C@@H]1CN(C(=O)c2nn(CC(=O)N3CCC(c4ccc(Cl)c(F)c4)CC3)c3c2CCC3)C[C@H](C)O1 [Example 112, 1-[4-(4-chloro-3-fluorophenyl)piperidin-1-yl]-2-{3-[(2R,6S)-2,6-dimethylmorpholine-4-carbonyl]-5,6-dihydrocyclopenta[c]pyrazol-1(4H)-yl}ethan-1-one]",40.6
6,"C[C@@H]1CN(C(=O)c2nn(CC(=O)N3CCC(c4cccc(C(F)(F)F)c4F)CC3)c3c2CCC3)C[C@H](C)O1 [Example 104, 2-{3-[(2R,6S)-2,6-dimethylmorpholine-4-carbonyl]-5,6-dihydrocyclopenta[c]pyrazol-1(4H)-yl}-1-{4-[2-fluoro-3-(trifluoromethyl)phenyl]piperidin-1-yl}ethan-1-one]",29.8
7,"COc1ccc(Cl)cc1C1CCN(C(=O)Cn2nc(C(=O)N3C[C@@H](C)O[C@@H](C)C3)c3c2CCC3)CC1 [Example 170, 1-[4-(5-chloro-2-methoxyphenyl)piperidin-1-yl]-2-{3-[(2R,6S)-2,6-dimethylmorpholine-4-carbonyl]-5,6-dihydrocyclopenta[c]pyrazol-1(4H)-yl}ethan-1-one]",361
8,"C[C@@H]1CN(C(=O)c2nn(CC(=O)N3CCC(c4cc(F)cc(Cl)c4)CC3)c3c2CCC3)C[C@H](C)O1 [Example 99, 1-[4-(3-chloro-5-fluorophenyl)piperidin-1-yl]-2-{3-[(2R,6S)-2,6-dimethylmorpholine-4-carbonyl]-5,6-dihydrocyclopenta[c]pyrazol-1(4H)-yl}ethan-1-one]",27.4
9,"C[C@@H]1CN(C(=O)c2nn(CC(=O)N3CCC(c4cc(F)c(F)cc4Cl)CC3)c3c2CCC3)C[C@H](C)O1 [Example 154, 1-[4-(2-chloro-4,5-difluorophenyl)piperidin-1-yl]-2-{3-[(2R,6S)-2,6-dimethylmorpholine-4-carbonyl]-5,6-dihydrocyclopenta[c]pyrazol-1(4H)-yl}ethan-1-one]",142
10,"Cc1cccc(C2(F)CCN(C(=O)Cn3nc(C(=O)N4CCC(N)CC4)c4c3C[C@H]3C[C@@H]43)CC2)c1C [Example 13, 2-((3bR,4aR)-3-(4-aminopiperidine-1-carbonyl)-3b,4,4a,5-tetrahydro-1H-cyclopropa[3,4]cyclopenta[1,2-c]pyrazol-1-yl)-1-(4-(2,3-dimethylphenyl)-4-fluoropiperidin-1-yl)ethanone]",90.4
11,"C[C@@H]1CN(C(=O)c2nn(CC(=O)N3CCC(c4cccc5ccccc45)CC3)c3c2CCC3)C[C@H](C)O1 [Example 69, 2-{3-[(2R,6S)-2,6-dimethylmorpholine-4-carbonyl]-5,6-dihydrocyclopenta[c]pyrazol-1(4H)-yl}-1-[4-(naphthalen-1-yl)piperidin-1-yl]ethan-1-one]",6.4
12,"CC(=O)NC1CCN(C(=O)c2nn(CC(=O)N3CCC(F)(c4cccc(C)c4C)CC3)c3c2[C@@H]2C[C@@H]2C3)CC1 [Example 12, N-(1-((3bR,4aR)-1-(2-(4-(2,3-dimethylphenyl)-4-fluoropiperidin-1-yl)-2-oxoethyl)-3b,4,4a,5-tetrahydro-1H-cyclopropa[3,4]cyclopenta[1,2-c]pyrazole-3-carbonyl)piperidin-4-yl)acetamide]",2.1
13,"C[C@@H]1CN(C(=O)c2nn(CC(=O)N3CCC(c4cccc5sccc45)CC3)c3c2CCC3)C[C@H](C)O1 [Example 88, 1-[4-(1-benzothiophen-4-yl)piperidin-1-yl]-2-{3-[(2R,6S)-2,6-dimethylmorpholine-4-carbonyl]-5,6-dihydrocyclopenta[c]pyrazol-1(4H)-yl}ethan-1-one]",8.3
14,"Cc1cc(C2CCN(C(=O)Cn3nc(C(=O)N4C[C@@H](C)O[C@@H](C)C4)c4c3CCC4)CC2)cc(C)c1F [Example 139, 2-{3-[(2R,6S)-2,6-dimethylmorpholine-4-carbonyl]-5,6-dihydrocyclopenta[c]pyrazol-1(4H)-yl}-1-[4-(4-fluoro-3,5-dimethylphenyl)piperidin-1-yl] ethan-1-one]",88.3
15,"Cc1cccc(C2(F)CCN(C(=O)Cn3nc(C(=O)N4CCN(C(=O)CO)CC4)c4c3C[C@H]3C[C@@H]43)CC2)c1C [Example 11, 1-(4-(2,3-dimethylphenyl)-4-fluoropiperidin-1-yl)-2-((3bR,4aR)-3-(4-(2-hydroxyacetyl)piperazine-1-carbonyl)-3b,4,4a,5-tetrahydro-1H-cyclopropa[3,4]cyclopenta[1,2-c]pyrazol-1-yl)ethanone]",5.4
